Experimental data published in patent US20240384268A1, “Oligonucleotides” (Hudson Institute of Medical Research, priority 2021, published 2024).
In the oligonucleotide strings, read from the 5' end, every base follows the letter of its sugar. An asterisk marks phosphorothioate; unmarked linkages are phosphodiester. Other units and linkages are bracketed, terminal groups are in braces. A string of capitals states the bases alone. d = 2'-deoxy (DNA); m = 2'-O-methyl

molecular target: T1, human TLR9 (Homo sapiens, UniProt Q9NR96); experiment: HEK-TLR9 NF-κB-luciferase reporter, ODN2006 stimulation; type: cell-based; details: HEK-TLR9; 500 nM ASO 45 min, then 200 nM ODN2006 overnight; percentage of ODN2006 only
T1 construct: HA; host or cells: 293XL-hTLR9-HA (HEK293)
T1 sequence (Q9NR96 26-1032): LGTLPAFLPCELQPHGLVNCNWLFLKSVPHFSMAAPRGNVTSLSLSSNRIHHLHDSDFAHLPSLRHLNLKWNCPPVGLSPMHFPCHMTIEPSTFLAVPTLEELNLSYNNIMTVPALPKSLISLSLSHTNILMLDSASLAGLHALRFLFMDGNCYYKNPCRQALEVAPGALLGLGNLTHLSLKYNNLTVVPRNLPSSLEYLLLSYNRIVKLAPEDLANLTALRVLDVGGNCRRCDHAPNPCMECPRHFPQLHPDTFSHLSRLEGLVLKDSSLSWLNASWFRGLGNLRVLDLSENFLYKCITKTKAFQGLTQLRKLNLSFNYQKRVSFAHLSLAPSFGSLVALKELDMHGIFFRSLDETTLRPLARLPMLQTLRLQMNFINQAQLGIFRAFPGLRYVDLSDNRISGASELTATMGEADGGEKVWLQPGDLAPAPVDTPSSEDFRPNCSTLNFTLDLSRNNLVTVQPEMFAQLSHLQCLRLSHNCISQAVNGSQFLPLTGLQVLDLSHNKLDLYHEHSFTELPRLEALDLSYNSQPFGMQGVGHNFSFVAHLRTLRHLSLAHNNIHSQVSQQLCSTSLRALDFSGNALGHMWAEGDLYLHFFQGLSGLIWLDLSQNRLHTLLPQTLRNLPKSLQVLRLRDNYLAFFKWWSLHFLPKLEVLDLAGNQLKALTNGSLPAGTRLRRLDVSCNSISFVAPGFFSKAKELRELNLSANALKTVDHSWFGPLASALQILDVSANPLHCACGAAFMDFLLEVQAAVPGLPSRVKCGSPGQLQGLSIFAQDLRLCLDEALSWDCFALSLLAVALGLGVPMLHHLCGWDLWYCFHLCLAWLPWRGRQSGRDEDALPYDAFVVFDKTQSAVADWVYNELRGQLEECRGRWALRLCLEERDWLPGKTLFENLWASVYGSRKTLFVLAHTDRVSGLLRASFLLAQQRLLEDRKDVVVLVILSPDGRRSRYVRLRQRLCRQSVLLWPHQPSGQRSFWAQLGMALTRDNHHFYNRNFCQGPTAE

Substance	TLR9-500 nM: averaged NF-κB-Luciferase relative to ODN2006
mU*mC*mU*mC*mU*C*T*G*G*T*C*C*C*A*T*mC*mC*mC*mU*mU (mU*mC*mU*mC*mU*dC*dT*dG*dG*dT*dC*dC*dC*dA*dT*mC*mC*mC*mU*mU; antisense) [[LINC-PINT]110]	74.25%
mU*mC*mU*mC*mU*G*G*T*C*C*C*A*T*C*C*mC*mU*mU*mC*mU (UCUCUGGTCCCATCCCUUCU; antisense; sugars from the 5' end m5 d10 m5, all phosphorothioate, methylation of C not given here) [[LINC-PINT]108]	100.51%
mU*mC*mU*mG*mG*T*C*C*C*A*T*C*C*C*T*mU*mC*mU*mG*mC (UCUGGTCCCATCCCTUCUGC; antisense; sugars from the 5' end m5 d10 m5, all phosphorothioate, methylation of C not given here) [[LINC-PINT]106]	56.60%
mU*mG*mA*mC*mA*A*A*A*C*A*A*T*A*A*T*mA*mA*mC*mA*mG (mU*mG*mA*mC*mA*dA*dA*dA*dC*dA*dA*dT*dA*dA*dT*mA*mA*mC*mA*mG) [[LINC-PINT]384]	53.61%
mU*mG*mA*mC*mA*T*T*T*C*G*T*G*G*C*T*mC*mC*mU*mA*mC (mU*mG*mA*mC*mA*dT*dT*dT*dC*dG*dT*dG*dG*dC*dT*mC*mC*mU*mA*mC; antisense) [[LINC-PINT]523 KL]	118.29%
mU*mG*mA*mU*mG*A*T*G*C*T*T*G*C*A*G*mG*mA*mG*mG*mC (mU*mG*mA*mU*mG*dA*dT*dG*dC*dT*dT*dG*dC*dA*dG*mG*mA*mG*mG*mC) [[LINC-PINT|283.1]	65.76%
mU*mG*mG*mC*mG*T*A*G*T*T*T*C*T*C*T*mU*mC*mC*mU*mC (mU*mG*mG*mC*mG*dT*dA*dG*dT*dT*dT*dC*dT*dC*dT*mU*mC*mC*mU*mC; antisense) [[LINC-PINT]937.1]	79.89%
mU*mG*mU*mG*mA*A*A*A*G*A*T*T*A*T*C*mU*mU*mC*mU*mU (UGUGAAAAGATTATCUUCUU; sugars from the 5' end m5 d10 m5, all phosphorothioate, methylation of C not given here) [[CDKN2B-AS1]2137]	62.16%
mU*mG*mU*mU*mU*C*C*C*C*G*G*A*G*A*G*mC*mA*mA*mU*mG (UGUUUCCCCGGAGAGCAAUG; antisense; sugars from the 5' end m5 d10 m5, all phosphorothioate, methylation of C not given here) [[LINC-PINT]501 KL]	71.47%
mU*mU*mA*mA*mA*T*A*A*T*C*T*A*G*T*T*mU*mG*mA*mA*mG (UUAAATAATCTAGTTUGAAG; sugars from the 5' end m5 d10 m5, all phosphorothioate, methylation of C not given here) [[CDKN2B-AS1]132]	98.18%
mU*mU*mA*mG*mC*T*C*C*T*T*G*C*C*T*C*mG*mU*mU*mC*mC (mU*mU*mA*mG*mC*dT*dC*dC*dT*dT*dG*dC*dC*dT*dC*mG*mU*mU*mC*mC; antisense) [[LINC-PINT] 1222]	78.17%
mU*mU*mC*mU*mC*T*C*T*G*G*T*C*C*C*A*mU*mC*mC*mC*mU (mU*mU*mC*mU*mC*dT*dC*dT*dG*dG*dT*dC*dC*dC*dA*mU*mC*mC*mC*mU; antisense) [[LINC-PINT]111]	98.01%
mU*mU*mG*mG*mC*C*T*G*T*G*G*A*T*G*C*mU*mU*mU*mG*mU (mU*mU*mG*mG*mC*dC*dT*dG*dT*dG*dG*dA*dT*dG*dC*mU*mU*mU*mG*mU) [[LINC-PINT]2673.1]	40.71%
mU*mU*mG*mU*mG*A*A*A*A*G*A*T*T*A*T*mC*mU*mU*mC*mU (mU*mU*mG*mU*mG*dA*dA*dA*dA*dG*dA*dT*dT*dA*dT*mC*mU*mU*mC*mU) [[CDKN2B-AS1]2138]	61.15%
mU*mU*mU*mG*mA*A*A*T*T*C*A*G*A*A*G*mA*mU*mU*mU*mG (mU*mU*mU*mG*mA*dA*dA*dT*dT*dC*dA*dG*dA*dA*dG*mA*mU*mU*mU*mG) [[LINC PINT|2690]	54.33%
